{"source": "PubChem BioAssay AID1033", "about": "(Sanford-Burnham Center for Chemical Genomics, 2008)", "note": "Calls of active or inactive are those of the source. How the calls were made is not given here.", "data": [{"biological_target": "Chaperone protein DnaK (Escherichia coli (strain K12)) (UniProt P0A6Y8)", "sequence (P0A6Y8 whole entry, looked up)": "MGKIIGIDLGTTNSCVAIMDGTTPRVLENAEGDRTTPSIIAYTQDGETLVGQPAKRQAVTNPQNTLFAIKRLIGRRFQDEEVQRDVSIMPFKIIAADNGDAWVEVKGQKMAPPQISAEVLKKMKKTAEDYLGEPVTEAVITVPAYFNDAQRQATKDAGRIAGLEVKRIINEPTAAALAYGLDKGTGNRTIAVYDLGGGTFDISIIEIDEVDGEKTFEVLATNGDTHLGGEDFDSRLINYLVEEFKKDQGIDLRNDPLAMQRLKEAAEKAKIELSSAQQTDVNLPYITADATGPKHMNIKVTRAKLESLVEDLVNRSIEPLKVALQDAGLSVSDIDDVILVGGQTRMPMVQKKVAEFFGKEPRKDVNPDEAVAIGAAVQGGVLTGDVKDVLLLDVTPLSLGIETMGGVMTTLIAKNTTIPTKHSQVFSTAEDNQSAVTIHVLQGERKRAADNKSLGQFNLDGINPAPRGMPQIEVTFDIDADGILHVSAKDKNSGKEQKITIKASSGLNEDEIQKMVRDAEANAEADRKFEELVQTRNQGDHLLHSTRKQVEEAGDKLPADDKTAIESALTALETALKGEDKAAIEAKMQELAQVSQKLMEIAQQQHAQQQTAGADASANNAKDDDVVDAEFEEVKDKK", "test": "E. coli DnaK SBD ligand binding – biophysical, NMR, chaperone (AID 1033)", "conditions": "Purified DnaK SBD", "values": [{"smiles": "CC(C)[C@@H]1CC[C@@H](C)CC1=O", "Kd": "> 4 mM (inactive)"}, {"smiles": "COc1ccccc1/C=C/CN1CCOCC1", "Kd": "> 4 mM (inactive)"}, {"smiles": "NC(=O)CC1NC(=O)c2ccccc21", "note": "(stereo unspecified)", "Kd": "> 4 mM (inactive)"}, {"smiles": "CC(=O)NC1=C(N(C)C)C(=O)c2ccccc2C1=O", "Kd": "> 4 mM (inactive)"}, {"smiles": "CC(C)c1ccc2c(c1O)CC[C@H]1C3=C(CC[C@]21C)C(=O)OC3", "Kd": "> 4 mM (inactive)"}, {"smiles": "O=C1CNC(=O)/C1=C/c1ccc(O)cc1", "Kd": "> 4 mM (inactive)"}, {"smiles": "Cc1onc(-c2c(Cl)cccc2Cl)c1C(N)=O", "Kd": "> 4 mM (inactive)"}, {"smiles": "CC(=O)c1cccc(NS(=O)(=O)N2CCCCC2)c1", "Kd": "> 4 mM (inactive)"}, {"smiles": "CN(Cc1nc2ccccc2n1C)S(C)(=O)=O", "Kd": "> 4 mM (inactive)"}, {"smiles": "O=C(Nc1ccon1)c1ccc(Cl)s1", "Kd": "> 4 mM (inactive)"}, {"smiles": "Nc1ccc(-n2cccc2)cc1", "Kd": "> 4 mM (inactive)"}, {"smiles": "COc1cccc(-c2nn(-c3ccccc3)cc2CO)c1", "Kd": "> 4 mM (inactive)"}, {"smiles": "CC1(C)CC2C1CC[C@]1(C)CCC3C(C(=O)O)CC(=O)O[C@@]32C1", "note": "(stereo partly specified)", "Kd": "> 4 mM (inactive)"}, {"smiles": "COc1ccc(-c2cc(=O)c3c(O)c(OC)c(O[C@H]4O[C@H](CO[C@@H]5O[C@@H](C)[C@H](O)[C@@H](O)[C@H]5O)[C@@H](O)[C@H](O)[C@H]4O)cc3o2)cc1", "Kd": "> 4 mM (inactive)"}, {"smiles": "COC1=CC(C)[C@@H]2C[C@H]3OC(=O)C[C@H]4C(C)=C(OC)C(=O)C([C@@]34C)[C@@]2(C)C1=O", "note": "(stereo partly specified)", "Kd": "> 4 mM (inactive)"}, {"smiles": "NC(Cc1c[nH]c2ccccc12)C(=O)O", "note": "(stereo unspecified)", "Kd": "> 4 mM (inactive)"}, {"smiles": "O=C(CSc1ncn[nH]1)c1ccccc1", "Kd": "> 4 mM (inactive)"}, {"smiles": "CC(=O)/C=C\\[C@@H]1[C@@]2(C)CCCC(C)(C)C2CC[C@@]1(C)O", "note": "(stereo partly specified)", "Kd": "> 4 mM (inactive)"}, {"smiles": "CC(C)c1nnc(N)s1", "Kd": "> 4 mM (inactive)"}, {"smiles": "O=C(NCc1cccs1)c1nc2ncccn2n1", "Kd": "inactive"}, {"smiles": "CNC[C@@H](O)c1ccc(O)c(O)c1", "Kd": "> 4 mM (inactive)"}, {"smiles": "CSc1nc(NC(C)C)nc(N2CCOCC2)n1", "Kd": "> 4 mM (inactive)"}, {"smiles": "CCOC(=O)c1c(C)nc2sccn12", "Kd": "> 4 mM (inactive)"}, {"smiles": "NCCc1ccc(S(N)(=O)=O)cc1", "Kd": "> 4 mM (inactive)"}, {"smiles": "COc1ccc(C2(C)NC(=O)NC2=O)cc1", "note": "(stereo unspecified)", "Kd": "> 4 mM (inactive)"}, {"smiles": "Nc1nnc(-c2ccncc2)s1", "Kd": "> 4 mM (inactive)"}, {"smiles": "COC(=O)Cc1cccc(OC)c1", "Kd": "> 4 mM (inactive)"}, {"smiles": "O=C(O[C@@H]1Cc2c(O)cc(O)cc2O[C@@H]1c1cc(O)c(O)c(O)c1-c1c([C@H]2Oc3cc(O)cc(O)c3C[C@H]2O)cc(O)c(O)c1O)c1cc(O)c(O)c(O)c1", "Kd": "> 4 mM (inactive)"}, {"smiles": "Cc1cc(C(=O)Nc2sc3c(c2C#N)CCC3)no1", "Kd": "> 4 mM (inactive)"}, {"smiles": "COc1ccc(-c2c(O)c3c(OC)c4c(cc3oc2=O)OC(C)(C)CC4)cc1", "Kd": "> 4 mM (inactive)"}, {"smiles": "COCc1cc(=O)oc2cc(O)c(Cl)cc12", "Kd": "> 4 mM (inactive)"}, {"smiles": "Cc1cc(N2CCN(C)CC2)ncn1", "Kd": "> 4 mM (inactive)"}, {"smiles": "Nc1nc(SCc2ccc3c(c2)OCO3)n[nH]1", "Kd": "> 4 mM (inactive)"}, {"smiles": "Cc1ccc(NC(=O)/C=C2\\SC(=O)NC2=O)cc1", "Kd": "> 4 mM (inactive)"}, {"smiles": "COC(=O)NNc1ncnc(N)c1[N+](=O)[O-]", "Kd": "> 4 mM (inactive)"}, {"smiles": "CSc1nc(C)c(Oc2ccccc2)c(=O)n1C", "Kd": "> 4 mM (inactive)"}, {"smiles": "O=C(O)CNc1ncnc2nc[nH]c12", "Kd": "> 4 mM (inactive)"}, {"smiles": "C=C1C2CC[C@@]3(C)[C@H](c4ccoc4)OC(=O)C[C@]13O[C@H]1CC(O)C(C)(C)C(CC(=O)OC)[C@@]21C", "note": "(stereo partly specified)", "Kd": "> 4 mM (inactive)"}, {"smiles": "N=C1/C(=C\\c2ccccc2)C(=O)N=C2SC=NN12", "Kd": "> 4 mM (inactive)"}, {"smiles": "Cc1cc(C(=O)NCc2cccs2)c(C)o1", "Kd": "> 4 mM (inactive)"}, {"smiles": "COc1cc2c(cc1-c1cc3cc4ccoc4cc3oc1=O)OCO2", "Kd": "> 4 mM (inactive)"}, {"smiles": "Cc1ncoc1C(=O)Nc1ccccc1C(N)=O", "Kd": "> 4 mM (inactive)"}, {"smiles": "COc1ccc(/C=C2\\NC(=S)N(C)C2=O)cc1O", "Kd": "> 4 mM (inactive)"}, {"smiles": "O=C(Cn1cnc2ccccc2c1=O)N1CCOCC1", "Kd": "> 4 mM (inactive)"}, {"smiles": "Nc1ccc2c(c1)CCC2=O", "Kd": "> 4 mM (inactive)"}, {"smiles": "CC1(C)O[C@H]2CC(=O)OC[C@]23[C@H]2CC[C@@]4(C)[C@H](c5ccoc5)OC(=O)[C@H]5O[C@]54[C@]2(C)C(=O)C[C@@H]13", "Kd": "> 4 mM (inactive)"}, {"smiles": "Cn1c(O)c(/C=C2\\C=CC=N2)c(=O)[nH]c1=O", "Kd": "> 4 mM (inactive)"}, {"smiles": "CC(=O)OCC(OC(C)=O)C(OC(C)=O)C(OC(C)=O)C(OC(C)=O)C(COC(C)=O)OC(C)=O", "note": "(stereo unspecified)", "Kd": "> 4 mM (inactive)"}, {"smiles": "CN=C1SC(CC(=O)Nc2ccc(O)cc2)C(=O)N1C", "note": "(stereo unspecified)", "Kd": "> 4 mM (inactive)"}, {"smiles": "CCOCC(=O)NCc1n[nH]c(=O)c2ccccc12", "Kd": "> 4 mM (inactive)"}, {"smiles": "C[N+](C)(C)CC(=O)[O-]", "Kd": "> 4 mM (inactive)"}, {"smiles": "O=C(O)c1ccc2ncccc2c1", "Kd": "> 4 mM (inactive)"}, {"smiles": "CC(=O)NC1C(=O)Nc2c(C)cc(C)cc21", "note": "(stereo unspecified)", "Kd": "> 4 mM (inactive)"}, {"smiles": "COc1ccc(-c2cc(=O)c3c(OC)c(OC)c(OC)c(OC)c3o2)cc1", "Kd": "> 4 mM (inactive)"}, {"smiles": "O=c1[nH]c(O)c(C=NCc2cccs2)c(=O)[nH]1", "Kd": "> 4 mM (inactive)"}, {"smiles": "NC(=O)c1ccsc1NC(=O)c1ccccc1[N+](=O)[O-]", "Kd": "> 4 mM (inactive)"}]}]}
